{"source": "paper PMC7874386", "about": "“Protein-observed 19F NMR of LecA from Pseudomonas aeruginosa” (Glycobiology, 2020)", "key": {"LecA [1]": {"biological_target": "T1, LecA (Pseudomonas aeruginosa, UniProt Q05097)", "T1 construct": "made in house; host or cells: Escherichia coli BL21 (DE3) (inferred from the yield comparison; no protocol of its own is printed for the unlabelled protein)", "T1 sequence (Q05097 whole entry)": "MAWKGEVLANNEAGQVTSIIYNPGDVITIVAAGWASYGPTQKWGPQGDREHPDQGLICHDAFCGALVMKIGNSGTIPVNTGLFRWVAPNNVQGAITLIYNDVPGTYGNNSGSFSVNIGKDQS", "details": "cited from earlier work; for affinity improvement compared to galactose: reported Kd values, ref Kadam, et al. 2011, Rodrigue, et al. 2013"}, "5FW LecA [2]": {"biological_target": "T2, 5FW LecA (Pseudomonas aeruginosa, UniProt Q05097)", "T2 construct": "made in house; host or cells: Escherichia coli BL21 (DE3), plasmid pET25pa1l, grown with 5-fluoroindole", "T2 sequence (Q05097 2-122)": "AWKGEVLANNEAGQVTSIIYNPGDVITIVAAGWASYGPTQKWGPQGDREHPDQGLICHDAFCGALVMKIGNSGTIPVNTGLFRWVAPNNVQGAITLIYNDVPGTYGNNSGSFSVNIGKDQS", "test": "PrOF NMR titration of ligands to 5FW LecA (W42 peak intensity)", "assay_type": "binding", "experimental": "All experiments were conducted on Bruker Ascend™700 (AvanceIII HD) spectrometer equipped with a 5 mm TCI700 CryoProbe™ in 3 mm tubes (Norell S-3-800-7) with following parameters: time domain of 1972, relaxation delay 1 s, acquisition time of 0.15 s, spectral width of 10 p.p.m. and 1024 scans resulting in measurement time of 20 minutes.\nThe decreasing intensity of the unbound W42 in 5FW LecA was followed to determine Kd values of ligands. Here, we used these values to normalize the changes in W42 peak intensities (Inormalized) following the equation (1) resulting in values plotted on Y-axis.(1) where I0 was unbound W42 in the reference spectrum of protein only, Imeasured was unbound W42 peak of protein with a ligand. The Kd values were calculated according to the one-site-binding model in GraphPad Prism 8 (GraphPad Software Inc., San Diego, CA) from three independent titrations."}, "LecA [3]": {"biological_target": "T1, LecA", "test": "Competitive binding fluorescence polarization assay with LecA", "experimental": "(§1) The competitive binding assay was performed as reported previously ([Joachim et al. 2016]). In total, 10 μL of LecA (40 μM) and meta-linked fluorescein-conjugate of phenyl-galactopyranoside (20 nM) in TBS pH 7.4 supplemented with 1 mM CaCl2 (TBS/Ca^2+) and 10 μL of compound-dilution series (8 mM to 62 μM, 8% DMSO) in TBS/Ca^2+ buffer were mixed in a 384-well plate (Greiner Bio-One, Germany) in three technical replicates. The sealed plate was centrifuged at 300 g for 1 min and incubated at room temperature with shaking. […] Polarization was calculated and the data were analyzed according to the four-parameter variable slope model (MARS Data Analysis Software, BMG Labtech GmbH, Germany), the top and bottom plateaus were determined from the control Me-α-D-Gal and data were reanalyzed with these values fixed."}, "5FW LecA [4]": {"biological_target": "T2, 5FW LecA", "test": "Competitive binding fluorescence polarization assay with 5FW LecA", "experimental": "as §1"}, "LecA [5]": {"biological_target": "T1, LecA", "details": "ref Cioci et al. 2003; cited from earlier work"}, "LecA [6]": {"biological_target": "T1, LecA", "test": "Isothermal titration calorimetry of Ca2+ to apo LecA", "assay_type": "binding", "details": "unlabeled apo LecA, TBS pH 7.4, 25°C; read-out: Kd (ITC)", "experimental": "ITC was performed on a Microcal ITC200 (General Electric) at 25°C. Calcium ions were removed by extensive dialysis against 1 mM EDTA pH 7.4 (×4) followed by 150 mM NaCl (×4) and distilled water. The protein solution was lyophilized and the solid protein stored at −20°C. A solution of calcium chloride in TBS (20 mM Tris, 137 mM NaCl, 2.6 mM KCl at pH 7.4) was titrated into a calcium-free LecA solution in the same buffer. The data were analyzed according to the one-site-binding model using Microcal Origin software. Four independent titrations were performed using CaCl2 and LecA between 2 and 3 mM and 170 and 200 μM, respectively."}}, "note": "Where two headings read alike, the source gives them in different places."}
{"molecule": "CC(C)C[C@H](NC(=O)[C@@H]1CCCN1C(=O)[C@H](CCCCN)NC(=O)c1ccc(O[C@@H]2O[C@H](CO)[C@H](O)[C@H](O)[C@H]2O)cc1)C(N)=O", "note": "[GalAG0]", "values": [{"measurement": "Kd", "setting": "LecA [1]; ref Kadam et al. 2011, Kadam et al. 2013, Rodrigue et al. 2013", "value": 4.2, "unit": "µM"}]}
{"molecule": "O=C[C@H](O)[C@@H](O)[C@@H](O)[C@H](O)CO", "note": "[D-Gal, D-galactose]", "values": [{"measurement": "Kd", "setting": "5FW LecA [2]", "value": 360, "unit": "µM"}, {"measurement": "IC50", "setting": "LecA [3]", "value": "330 ± 40", "unit": "µM"}, {"measurement": "IC50", "setting": "5FW LecA [4]", "value": 317, "unit": "µM"}, {"measurement": "Kd", "setting": "LecA [5]", "value": 29, "unit": "µM"}]}
{"molecule": "[Ca+2]", "note": "[Ca^2+, calcium (II) ion]", "values": [{"measurement": "Kd", "setting": "5FW LecA [2]; 100 μM apo 5FW LecA, MES pH 6, 310 K, one-site-binding model, three independent titrations, listed as Ca2+, read-out: Kd (PrOF NMR, Ca2+ titration)", "value": "47 ± 8", "unit": "µM"}, {"measurement": "Kd", "setting": "5FW LecA [2]; 100 μM apo 5FW LecA, MES pH 6, 310 K, one-site-binding model, three independent titrations, read-out: Kd (PrOF NMR, Ca2+ titration)", "value": 478, "unit": "µM"}, {"measurement": "Kd", "setting": "LecA [6]", "value": "60 ± 20", "unit": "µM"}]}
{"molecule": "O=[N+]([O-])c1ccc(O[C@@H]2O[C@H](CO)[C@H](O)[C@H](O)[C@H]2O)cc1", "note": "[pNPGal, p-nitrophenyl β-D-galactoside]", "values": [{"measurement": "Kd", "setting": "5FW LecA [2]", "value": "54 ± 6", "unit": "µM"}, {"measurement": "improved binding affinity compared to D-Gal", "setting": "5FW LecA [2]; Kd in PrOF NMR, pNPGal vs D-Gal", "value": 6, "unit": "fold"}, {"measurement": "affinity improvement compared to galactose", "setting": "LecA [1]", "value": "6 to 7", "unit": "fold"}]}
{"molecule": "OC[C@H]1O[C@@H](Sc2ccc3ccccc3c2)[C@H](O)[C@@H](O)[C@H]1O", "note": "[naphthyl β-thio-D-galactoside]", "values": [{"measurement": "Kd", "setting": "LecA [1]; ref Rodrigue et al. 2013", "value": 6.3, "unit": "µM"}, {"measurement": "affinity improvement compared to galactose", "setting": "LecA [1]", "value": "6 to 7", "unit": "fold"}]}
{"molecule": "OC[C@H]1O[C@@H](Oc2ccccc2)[C@H](O)[C@@H](O)[C@H]1O", "note": "[Ph-β-D-Gal, phenyl-β-D-galactopyranoside]", "values": [{"measurement": "Kd", "setting": "5FW LecA [2]; 100 μM holo 5FW LecA, TBS pH 7.8, 310 K, one-site-binding model, three independent titrations, read-out: Kd (PrOF NMR)", "value": "166 ± 42", "unit": "µM"}]}
{"molecule": "CC(=O)N[C@H]1C(O)O[C@H](CO)[C@H](O)[C@@H]1O", "note": "(stereo partly drawn) [D-GalNAc, N-acetyl D-galactosamine]", "values": [{"measurement": "Kd", "setting": "5FW LecA [2]", "value": "780 ± 97", "unit": "µM"}, {"measurement": "IC50", "setting": "LecA [3]", "value": "1230 ± 200", "unit": "µM"}, {"measurement": "IC50", "setting": "5FW LecA [4]", "value": 1990, "unit": "µM"}, {"measurement": "IC50 (FP-based assay) higher compared with Kd from PrOF NMR", "setting": "5FW LecA [4]; 5FW LecA", "value": 3, "unit": "fold"}]}
